Key:
[1] = biological target: T1, full-length Shp2 (Shp2 FL) (Homo sapiens, UniProt Q06124); assay: in vitro PTP assay (pNPP), full-length Shp2; format: biochemical
T1 sequence (Q06124 1-593): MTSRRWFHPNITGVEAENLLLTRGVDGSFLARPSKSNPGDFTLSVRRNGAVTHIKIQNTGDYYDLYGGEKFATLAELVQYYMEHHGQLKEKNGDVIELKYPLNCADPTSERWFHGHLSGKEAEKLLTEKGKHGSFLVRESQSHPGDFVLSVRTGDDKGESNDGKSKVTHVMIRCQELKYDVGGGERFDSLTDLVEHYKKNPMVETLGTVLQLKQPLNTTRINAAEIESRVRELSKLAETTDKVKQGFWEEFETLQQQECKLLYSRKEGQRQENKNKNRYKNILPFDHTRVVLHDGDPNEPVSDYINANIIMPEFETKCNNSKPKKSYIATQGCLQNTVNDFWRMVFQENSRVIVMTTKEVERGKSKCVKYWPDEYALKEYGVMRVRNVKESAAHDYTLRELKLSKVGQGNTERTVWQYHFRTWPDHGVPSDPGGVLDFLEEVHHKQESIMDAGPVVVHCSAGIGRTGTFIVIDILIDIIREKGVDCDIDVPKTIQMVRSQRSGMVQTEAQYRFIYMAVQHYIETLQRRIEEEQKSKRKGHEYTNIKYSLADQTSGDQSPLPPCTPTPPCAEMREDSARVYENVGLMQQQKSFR
Description: (§1) Plasmids for expression of His-tag fusion proteins of human PTP were constructed in PET-28a by PCR subcloning techniques. The constructions contain only the PTP domain except Full-length Shp2. Full-length Shp2 containing Tyr279-to-Ala mutant was generated by PCR-based mutagenesis. All constructs were verified by DNA sequencing. PTP-His fusion proteins were expressed in Escherichia coli BL21 and lysed in the buffer (50 mM NaH2PO4, 300 mM NaCl, 250 mM imidazole, 1 mM dithiothreitol plus 5% glycerol), purified with Ni-NTA Magnetic Agarose Beads (Qiagen). The His-tag recombinant purification protocol was carried out according to the purification under native conditions of the QIAexpress System.
(§2) The assay was set in wells of 96-well plate with a final volume of 100 μl of reaction mixture containing 10 mM of NaAc-HAc, 1 mM of ethylene diamine tetraacetic acid, 1 mM of DL-dithiothreitol and 2% of dimethyl sulfoxide, pH 5.5. Activity of the enzyme was assayed by incubating recombinant PTP protein or mutant PTP with various concentrations of Fumos in the mixture at 37 °C for 30 min. Absorbance at 405 nm was detected immediately after addition of varied concentrations of substrate, p-nitrophenyl phosphate (pNPP) to each corresponding well.

TCPTP = TCPTP (Homo sapiens, UniProt P17706); assay: in vitro PTP assay (pNPP), TCPTP; format: biochemical
Description: as §1, §2

Meg2 = Meg2 (Homo sapiens, UniProt P43378); assay: in vitro PTP assay (pNPP), Meg2; format: biochemical
Description: as §1, §2

[2] = test system: phosphorylation of AKT and GSK3β; assay: EGF-induced AKT activation, Western blot; format: cell-based; conditions: 10-40 μM for 24 h, EGF 20 ng/ml 5 min
Excerpt: Figure 4 Fumos doesn’t inhibit EGF-induced AKT activation. Fumos doesn’t inhibit EGF-induced AKT activation. […] DMSO treatment as control. Western blotting analysis for p-AKT, AKT, p-GSK3β and GSK3β.
After centrifugation, the supernatant was collected.

HePTP = HePTP (Homo sapiens, UniProt P35236); assay: in vitro PTP assay (pNPP), HePTP; format: biochemical
Description: as §1, §2

[3] = test system: Gab1-Shp2 association in MDA-MB-231 cells; assay: Gab1-Shp2 co-immunoprecipitation, MDA-MB-231; format: cell-based, human; conditions: Fumos alone
Description: Cells were washed with cold PBS twice and lysed in cell lysis buffer for 10 min on ice. Then the lytic cells were centrifugated with 13,000 g for 10 min at 4 °C. The supernatant was transferred to a fresh conical centrifuge tube on ice and added 1 μg of the appropriate control IgG, together with 20 μl of resuspended volume of Protein A/G PLUS-Agarose (Santa Cruz Biotechnology, CA), then incubated at 4 °C for 30 min. The pellet beads were centrifugated at 1,000 g for 5 min at 4 °C. The supernatant with approximately 100–500 μg total cellular protein was incubated with 2 μg primary antibody against Shp2 or Gab1 for 7 h at 4 °C. Then lysates containing protein-antibody complexes were incubated with 20 μl of Protein A/G PLUS-Agarose at 4 °C on a rotating device overnight. Immunoprecipitates were collected by centrifugation at 2,500 rpm and washed for 4 times with 1 ml lysis buffer, then suspended in the loading buffer, boiled, and analyzed by SDS-PAGE.
Figure S1. Fumos inhibits Gab1-Shp2 association in MDA-MB-231 cells.
MDA-MB-231 cells were serum-starved for 18 h, preincubated with or without Fumos (20 μM 24 h), and then treated with EGF (20 ng/ml, 5 min). Shp2 was immunoprecipitated from cell lysate supernatants. Immunoprecipitates were analyzed by immunoblotting with antibodies to Gab1, pY and Shp2.
(1 picture or pasted object on this page, not shown here)

HeLa cells = assay: Transwell invasion assay, HeLa; format: cell-based, human; conditions: 4 and 14 μM, 24 h, EGF in lower chamber
Description: The invasion assay was performed in Transwell chambers according to Corning methods. Briefly, the upper chamber of a Transwell insert ([…] pore size) was coated with 40 μl 1:6 mixture of Matrigel (BD Biosciences, Bedford): Opti-MEM (Invitrogen) for MDA-MB-231 and 40 μl 1:12 mixture of Matrigel: Opti-MEM (Invitrogen) for HeLa cells and dried for 2 h at 37 °C. The lower chamber was filled with serum-free media containing 10 ng/ml EGF. Cells were seeded into upper chamber at a density 5 × 10^4 cells/ml per well in serum-free media. Cells were treated with series concentrations of Fumos for 24 h. The top aspect of the membrane was gently swabbed the inside of each insert using cotton swabs, and cells that invaded on the lower surface of the membrane were fixed using methanol and stained with crystal violet (Beyotime Institute of Biotechnology). Random fields were counted and photographed by microscope (Olympus).

TCPTP, sequence (P17706 5-275 limits assumed): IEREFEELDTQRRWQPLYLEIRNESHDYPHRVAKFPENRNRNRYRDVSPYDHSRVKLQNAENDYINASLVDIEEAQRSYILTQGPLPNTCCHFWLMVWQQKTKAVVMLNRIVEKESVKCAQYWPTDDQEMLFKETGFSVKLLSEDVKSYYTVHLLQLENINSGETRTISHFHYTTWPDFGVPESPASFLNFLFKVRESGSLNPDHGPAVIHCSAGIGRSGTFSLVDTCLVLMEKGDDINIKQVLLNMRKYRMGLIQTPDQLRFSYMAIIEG
HePTP, sequence (P35236 97-350 limits assumed): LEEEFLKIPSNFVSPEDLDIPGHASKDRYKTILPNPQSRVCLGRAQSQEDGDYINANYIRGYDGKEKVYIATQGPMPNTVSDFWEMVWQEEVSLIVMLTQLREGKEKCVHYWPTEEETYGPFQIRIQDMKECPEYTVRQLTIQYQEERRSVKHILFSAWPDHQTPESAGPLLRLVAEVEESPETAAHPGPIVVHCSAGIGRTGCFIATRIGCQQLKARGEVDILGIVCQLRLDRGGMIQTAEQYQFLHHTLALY
Meg2, sequence (P43378 303-574 limits assumed): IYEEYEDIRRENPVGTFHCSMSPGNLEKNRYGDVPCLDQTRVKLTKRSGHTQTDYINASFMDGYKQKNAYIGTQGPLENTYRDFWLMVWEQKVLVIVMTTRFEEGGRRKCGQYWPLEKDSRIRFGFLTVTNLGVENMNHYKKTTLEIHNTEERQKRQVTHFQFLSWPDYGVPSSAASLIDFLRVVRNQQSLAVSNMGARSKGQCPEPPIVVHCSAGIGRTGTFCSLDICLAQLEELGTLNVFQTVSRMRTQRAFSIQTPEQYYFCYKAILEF

CC[C@@H](C)C[C@@H](C)/C=C(C)/C=C/C=C/C=C(\C)C(=O)c1c(O)c(-c2ccc(O)cc2)cn(O)c1=O [Fumos, Fumosorinone]
IC50 selective ([1]; Shp2 FL relative to Shp2 PTP domain): 4 | IC50 ([1]; full-length Shp2 (Shp2 FL)): 26.5 ± 0.37 µM | IC50 (TCPTP; TCPTP PTP domain): 29.7 ± 0.42 µM | IC50 selective (TCPTP; TCPTP relative to Shp2 PTP domain): ~5 | IC50 (Meg2; Meg2 PTP domain): > 100 µM | IC50 selective (Meg2; Meg2 relative to Shp2 PTP domain): >16 | EGF-induced phosphorylation of AKT [2]: did not inhibit | EGF-induced phosphorylation of GSK3β [2]: did not inhibit | IC50 (HePTP; HePTP PTP domain): > 100 µM | IC50 selective (HePTP; HePTP relative to Shp2 PTP domain): >16 | Gab1-Shp2 association without EGF [3]: induces Gab1-Shp2 association | cell invasion (Transwell) (HeLa cells): significantly inhibited
